Positions count from the first letter of the chain named.
What was measured:
Type in all cases: biochemical
[1] = target: T1, Δ102 HYPE (HYPE103-456) (Homo sapiens, UniProt Q9BVA6); test: fluorescence polarization autoAMPylation with Fl-ATP; conditions: activator; detergent-less minimal buffer 50 mM HEPES pH 7.5, 1 mM MnCl2, 25 nM Fl-ATP, 0.4 µM enzyme, room temperature; unreliable
T1 construct: gene FICD; aa 103-456, lacks TM domain and N-terminus; His6-SUMO tag cleaved by ULP1; pSMT3, E. coli BL21-DE3-RILP; cobalt and size-exclusion purified
T1 sequence (Q9BVA6 103-456): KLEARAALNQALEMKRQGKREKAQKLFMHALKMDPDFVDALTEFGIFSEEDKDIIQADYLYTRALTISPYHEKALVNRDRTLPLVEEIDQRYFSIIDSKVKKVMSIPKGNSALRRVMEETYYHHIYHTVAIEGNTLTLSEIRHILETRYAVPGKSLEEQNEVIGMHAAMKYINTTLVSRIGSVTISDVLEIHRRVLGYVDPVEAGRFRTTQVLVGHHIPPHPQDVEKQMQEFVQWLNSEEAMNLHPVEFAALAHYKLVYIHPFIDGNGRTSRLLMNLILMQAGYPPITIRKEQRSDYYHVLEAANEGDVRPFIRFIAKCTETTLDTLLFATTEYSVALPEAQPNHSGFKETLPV
Text: fluorescence polarization autoAMPylation with Fl-ATP on Δ102 HYPE (HYPE103-456) | robust dose-dependencies among all activators, with low micromolar EC50 values

[2] = target: T2, Δ45 HYPE (Homo sapiens, UniProt Q9BVA6); test: in-gel fluorescence autoAMPylation with Fl-ATP; conditions: activator; same, with 0.1% Triton X-100
T2 construct: gene FICD; aa 46-456, TM domain deleted; His6-SUMO tag cleaved by ULP1; pSMT3, E. coli BL21-DE3-RILP; cobalt and size-exclusion purified
T2 sequence (Q9BVA6 46-456): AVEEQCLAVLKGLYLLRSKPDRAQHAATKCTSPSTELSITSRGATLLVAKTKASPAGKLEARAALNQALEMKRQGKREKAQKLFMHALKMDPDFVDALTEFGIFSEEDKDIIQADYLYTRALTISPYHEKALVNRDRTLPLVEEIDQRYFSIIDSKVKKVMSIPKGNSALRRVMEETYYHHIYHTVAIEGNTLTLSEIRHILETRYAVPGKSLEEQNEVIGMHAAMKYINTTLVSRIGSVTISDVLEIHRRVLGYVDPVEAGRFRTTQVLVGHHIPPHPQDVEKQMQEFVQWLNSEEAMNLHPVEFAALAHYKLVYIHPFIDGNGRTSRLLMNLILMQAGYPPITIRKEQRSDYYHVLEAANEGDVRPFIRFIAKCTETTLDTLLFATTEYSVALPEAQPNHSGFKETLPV

[3] = target: T3, Δ102 HYPE (HYPE103-456) (Homo sapiens, UniProt Q9BVA6, E234G); test: fluorescence polarization autoAMPylation with Fl-ATP
T3 construct: gene FICD; aa 103-456, lacks TM domain and N-terminus; His6-SUMO tag cleaved by ULP1; pSMT3, E. coli BL21-DE3-RILP; cobalt and size-exclusion purified
T3 sequence (Q9BVA6 103-456 E234G): T1 sequence (Q9BVA6 103-456) with E132G
Text: fluorescence polarization autoAMPylation with Fl-ATP on Δ102 HYPE (HYPE103-456) | I1 and I3 were in the mid-micromolar range | we obtained a low micromolar inhibitory potency for I2

| Compound | EC50 [1] | IC50 [3] | further results |
| --- | --- | --- | --- |
| CCCCCCCCCCCCCCCC(O)C(N)CO (racemic) [A2, DL-erythro-dihydrosphingosine] | 15.415 µM |  |  |
| CCCCC(CC)CN1CN(CC(CC)CCCC)CC(C)(N)C1 (stereo not shown) [A3, Hexetidine] | 13.144 µM |  |  |
| CCCCCCCCCCCCCCCC[N+](C)(C)CCN(Cc1ccc(OC)cc1)c1ncccn1 [A5, Thonzonium Bromide] | 10.305 µM |  |  |
| CC(C)(C)c1ccc(-c2cc(C[C@H]3CNCC[C@H]3CC(=O)N3CCN(c4ccc(F)cc4)CC3)no2)cc1 [A6, NAT14–350426] |  |  | in-gel fluorescence autoAMPylation with Fl-ATP [2]: significant increase in bioactivity of A1 and A4–A6 (Figure 9D) |
| Cc1cc(-c2ccc(N=Nc3ccc4c(S(=O)(=O)O)cc(S(=O)(=O)O)c(N)c4c3O)c(C)c2)ccc1N=Nc1ccc2c(S(=O)(=O)O)cc(S(=O)(=O)O)c(N)c2c1O [I1, Evan’s Blue] |  | 30.4 µM |  |
| O=C(O)C1=CC(=C(c2ccc(O)c(C(=O)O)c2)c2ccc(O)c(C(=O)O)c2)C=CC1=O [I2, Aurintricarboxylic Acid] |  | 0.347 µM |  |
| COc1cc(-c2ccc(N=Nc3ccc4c(S(=O)(=O)O)cc(S(=O)(=O)O)c(N)c4c3O)c(OC)c2)ccc1N=Nc1ccc2c(S(=O)(=O)O)cc(S(=O)(=O)O)c(N)c2c1O [I3, Chicago Sky Blue] |  | 22.5 µM |  |

— PMC7582957, “A Fluorescence Polarization-Based High-Throughput Screen to Identify the First Small-Molecule Modulators of the Human Adenylyltransferase HYPE/FICD” (International Journal of Molecular Sciences, 2020)
